Broadly, the IC50 is the midpoint of a concentration-inhibition curve. Broadly, the EC50 is the concentration at which the effect is half-maximal.

For assay [1], the target named is SHP-2 full length protein (Homo sapiens (Human), UniProt Q06124). Nature of the assay: SHP-2 biochemical DiFMUP pseudosubstrate-fluorogenic assay. Conditions: 0.2 nM SHP-2, 1 μM IRS-1 activator peptide, 50 μM DiFMUP; read-out: SHP2 IC50. The method in brief:
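In-house recombinant full-length SHP-2 preincubated 90 min at room temperature with compounds (1:3 series, 10,000–0.005 nM), then DiFMUP substrate added at 50 μM final for 30 min more. Fluorescence normalised to DMSO wells (100%) and IC50 derived by curve fitting.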

Assay [2] concerns NCI-H358 cells. Nature of the assay: NCI-H358 3D tumor spheroid growth inhibition. Particulars: Homo sapiens, NCI-H358, 168 h, 3D spheroids, 7 days, 3D CellTiter Glo; cellular IC50 designated EC50; read-out: H358 EC50. Format: cell-based. The method, boiled down:
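Cells seeded at 1000/well in ultra-low-attachment plates at 37 °C, 5% CO2 to form spheroids, then incubated a further 7 days with compounds. Viability by 3D CellTiter Glo luminescence; % inhibition versus DMSO wells, with normalized cellular IC50 reported as EC50.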
(Cellular ATP, detected with luciferase, serves as a proxy for viable cell number.)

Sequence of SHP-2 full length protein (Q06124 whole entry): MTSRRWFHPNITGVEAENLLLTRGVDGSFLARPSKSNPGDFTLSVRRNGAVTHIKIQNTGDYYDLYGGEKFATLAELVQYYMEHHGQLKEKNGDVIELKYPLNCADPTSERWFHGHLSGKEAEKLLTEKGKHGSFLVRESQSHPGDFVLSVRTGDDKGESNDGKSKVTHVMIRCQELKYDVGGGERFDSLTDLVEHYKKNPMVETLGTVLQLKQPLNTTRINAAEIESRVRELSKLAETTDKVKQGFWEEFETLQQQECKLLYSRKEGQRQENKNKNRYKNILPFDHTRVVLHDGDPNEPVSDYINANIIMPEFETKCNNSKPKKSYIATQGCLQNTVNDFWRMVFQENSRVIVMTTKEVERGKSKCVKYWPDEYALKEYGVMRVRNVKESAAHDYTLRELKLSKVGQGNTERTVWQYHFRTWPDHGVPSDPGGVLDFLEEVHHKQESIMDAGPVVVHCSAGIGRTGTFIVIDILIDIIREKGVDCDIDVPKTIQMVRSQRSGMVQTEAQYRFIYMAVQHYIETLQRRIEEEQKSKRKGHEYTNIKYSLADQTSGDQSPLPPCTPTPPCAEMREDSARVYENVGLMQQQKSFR

`N[C@H]1c2cccnc2CC12CCN(c1ncc(Sc3cccc(Cl)c3Cl)c3nccn13)CC2` [Example 148, (R)-1′-(8-((2,3-dichlorophenyl)thio)imidazo[1,2-c]pyrimidin-5-yl)-5,7-dihydrospiro[cyclopenta[b]pyridine-6,4′-piperidin]-5-amine]: the IC50 in assay [1] amounted to 41 nM. Moreover, the EC50 in assay [2] worked out at 132 nM.
For `Nc1nccc(Sc2cnc(N3CCC4(CC3)Cc3ncccc3[C@@H]4N)n3ccnc23)c1Cl` [Example 149, (R)-1′-(8-((2-amino-3-chloropyridin-4-yl)thio)imidazo[1,2-c]pyrimidin-5-yl)-5,7-dihydrospiro[cyclopenta[b]pyridine-6,4′-piperidin]-5-amine], the IC50 in assay [1] worked out at 75 nM. Further, the EC50 in assay [2] turned out to be 101 nM.

The record behind these values is patent US11179397B2, “Imidazopyrimidine derivatives” (Gilead Sciences, Inc., priority 2018, dated 2021).
